Tested on: human (tumor) Hif2α (EPAS1) mRNA
Assay: Hif2α knockdown in orthotopic RCC tumor bearing mice, single injection of RNAi trigger-delivery polymer conjugate, RT-qPCR (Table 7)
Format: in vivo
Details: single tail vein injection, relative to isotonic glucose
Outline: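 Female athymic nude mice carried orthotopic A498-SEAP ccRCC kidney tumours, used 5–6 weeks after implantation. They received one tail-vein injection of RGD-targeted Hif2α RNAi trigger–polymer conjugate or isotonic glucose. Tumour Hif2α mRNA was measured by TaqMan RT-qPCR normalised to CycA (ΔΔCT) and expressed relative to glucose-treated mice.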

[1] = RNAi trigger 80 μg, polymer 126 400 μg
[2] = RNAi trigger 115 μg, polymer 100A 375 μg

Substance	Relative Expression day 4 (Hif2α mRNA in kidney tumor) [1]	Relative Expression day 4 (Hif2α mRNA in kidney tumor) [2]
AD01258 (antisense TUUCAUGAAAUCGUUACGUTT; sense ACGUAACGAUUUCAUGAAAT; Hif2alpha RNAi agent antisense strand; modified_base 2,4,6,8,10,12,14,16,18 /mod_base = “2′-deoxy-2′-fluoro corresponding nucleoside”; modified_base 3,5,7,9,11,13,17,19 /mod_base = “2′-O-methyl corresponding nucleoside”; modified_base 15 /mod_base = “2′-3′ seco corresponding nucleotide”; modified_base 21 /mod_base = “5′-phosphorothioate corresponding nucleotide”; Hif2alpha RNAi agent sense strand; modified_base 1,3,5,7,9,11,13,15,17,19 /mod_base = “2′-deoxy-2′-fluoro corresponding nucleoside”; modified_base 2,4,6,8,10,12,14,16,18 /mod_base = “2′-O-methyl corresponding nucleoside”; modified_b)	0.38	–
AD01288 (antisense TUUCAUGAAAUCGUUACGUTT; sense ACGUAACGAUUUCAUGAAAT; Hif2alpha RNAi agent antisense strand; modified_base 2,4,6,8,10,14,16,18 /mod_base = “2′-deoxy-2′-fluoro corresponding nucleoside”; modified_base 3,5,7,9,11,12,13,15,17,19 /mod_base = “2′-O-methyl corresponding nucleoside”; modified_base 21 /mod_base = “5′-phosphorothioate corresponding nucleotide”; Hif2alpha RNAi agent sense strand; modified_base 1,3,5,7,8,9,11,13,15,17,19 /mod_base = “2′-deoxy-2′-fluoro corresponding nucleoside”; modified_base 2,4,6,10,12,14,16,18 /mod_base = “2′-O-methyl corresponding nucleoside”; modified_base 20 /mod_base = “3′-3′-linked nucleotide”; modified_base 1 /mo)	–	0.32
AD01289 (antisense TUUCAUGAAAUCGUUACGUTT; sense ACGUAACGAUUUCAUGAAAT; Hif2alpha RNAi agent antisense strand; modified_base 2,4,6,8,10,12,14,16,18 /mod_base = “2′-deoxy-2′-fluoro corresponding nucleoside”; modified_base 3,5,7,9,11,13,15,17,19 /mod_base = “2′-O-methyl corresponding nucleoside”; modified_base 21 /mod_base = “5′-phosphorothioate corresponding nucleotide”; Hif2alpha RNAi agent sense strand; modified_base 1,3,5,6,7,9,11,13,15,17,19 /mod_base = “2′-deoxy-2′-fluoro corresponding nucleoside”; modified_base 2,4,8,10,12,14,16,18 /mod_base = “2′-O-methyl corresponding nucleoside”; modified_base 20 /mod_base = “3′-3′-linked nucleotide”; modified_base 1 /mo)	–	0.28
AD01290 (antisense TUUCAUGAAAUCGUUACGUTT; sense ACGUAACGAUUUCAUGAAAT; Hif2alpha RNAi agent antisense strand; modified_base 2,4,6,8,10,12,14,16,18 /mod_base = “2′-deoxy-2′-fluoro corresponding nucleoside”; modified_base 3,5,7,9,11,13,15,17,19 /mod_base = “2′-O-methyl corresponding nucleoside”; modified_base 21 /mod_base = “5′-phosphorothioate corresponding nucleotide”; Hif2alpha RNAi agent sense strand; modified_base 1,3,7,9,11,13,15,17,19 /mod_base = “2′-deoxy-2′-fluoro corresponding nucleoside”; modified_base 2,4,5,6,8,10,12,14,16,18 /mod_base = “2′-O-methyl corresponding nucleoside”; modified_base 20 /mod_base = “3′-3′-linked nucleotide”; modified_base 1 /mo)	–	0.39
AD01291 (antisense TUUCAUGAAAUCGUUACGUUGGC; sense CAACGUAACGAUUUCAUGAAA; Hif2alpha RNAi agent antisense strand; modified_base 2,4,6,8,10,14,16,18,20 /mod_base = “2′-deoxy-2′-fluoro corresponding nucleoside”; modified_base 3,5,7,9,11,12,13,15,17,19,21,22,23 /mod_base = “2′-O-methyl corresponding nucleoside”; modified_base 2,3,22,23 /mod_base = “5′-phosphorothioate corresponding nucleotide”; Hif2alpha RNAi agent sense strand; modified_base 1,3,5,7,9,10,11,13,15,17,19,21 /mod_base = “2′-deoxy-2′-fluoro corresponding nucleoside”; modified_base 2,4,6,8,12,14,16,18,20 /mod_base = “2′-O-methyl corresponding nucleoside”; modified_base 2,3 /mod_base = “5′-phosphorothioate)	0.19	–
AD01292 (antisense TUUCAUGAAAUCGUUACGUUGGC; sense CAACGUAACGAUUUCAUGAAA; Hif2alpha RNAi agent antisense strand; modified_base 2,4,6,8,10,14,16,18,20 /mod_base = “2′-deoxy-2′-fluoro corresponding nucleoside”; modified_base 3,5,7,9,11,12,13,15,17,19,21,22,23 /mod_base = “2′-O-methyl corresponding nucleoside”; modified_base 2,3,22,23 /mod_base = “5′-phosphorothioate corresponding nucleotide”; Hif2alpha RNAi agent sense strand; modified_base 3,5,7,9,10,11,13,15,17,19,21 /mod_base = “2′-deoxy-2′-fluoro corresponding nucleoside”; modified_base 2,4,6,8,12,14,16,18,20 /mod_base = “2′-O-methyl corresponding nucleoside”; modified_base 1 /mod_base = “2′-3′ seco correspondin)	0.27	–
AD01293 (antisense TUUCAUGAAAUCGUUACGUUGGCUGU; sense UAUAUCAACGUAACGAUUUCAUGAAA; Hif2alpha RNAi agent antisense strand; modified_base 25 modified base = “2′-hydroxy corresponding nucleoside”; modified_base 2,4,6,8,10,14,16,18,20 /mod_base = “2′-deoxy-2′-fluoro corresponding nucleoside”; modified_base 3,5,7,9,11,12,13,15,17,19,21,22,23,24,26 /mod_base = “2′-O-methyl corresponding nucleoside”; modified_base 2,3,23,24 /mod_base = “5′-phosphorothioate corresponding nucleotide”; Hif2alpha RNAi agent sense strand; modified_base 2,4 modified base = “2′-hydroxy corresponding nucleoside”; modified_base 6,8,10,12,14,15,16,18,20,22,24,26 /mod_base = “2′-deoxy-2′-fluoro correspondin)	0.20	–
